# In publication PMC9811466, “Structural Features Affecting the Interactions and Transportability of LAT1-Targeted Phenylalanine Drug Conjugates” (Molecular Pharmaceutics, 2022):
# “And” between values parts separate entries of the source, which are not always exact repeats. Identical values can stand only once. Like-named read-outs stand apart in the source and are kept apart here.
# Experiments:
# hLAT1/4F2hc [1] = biological target: T1, hLAT1/4F2hc (Homo sapiens, UniProt Q01650); assay: cis-inhibition of [14C]-L-leucine uptake in HEK-hLAT1 cells; format: cell-based; conditions: for inhibition at 50 µM: read-out: [14C]-L-Leucine uptake inhibition % (50μM)
# T1 construct: Invitrogen (host cells)
# T1 sequence (Q01650 whole entry): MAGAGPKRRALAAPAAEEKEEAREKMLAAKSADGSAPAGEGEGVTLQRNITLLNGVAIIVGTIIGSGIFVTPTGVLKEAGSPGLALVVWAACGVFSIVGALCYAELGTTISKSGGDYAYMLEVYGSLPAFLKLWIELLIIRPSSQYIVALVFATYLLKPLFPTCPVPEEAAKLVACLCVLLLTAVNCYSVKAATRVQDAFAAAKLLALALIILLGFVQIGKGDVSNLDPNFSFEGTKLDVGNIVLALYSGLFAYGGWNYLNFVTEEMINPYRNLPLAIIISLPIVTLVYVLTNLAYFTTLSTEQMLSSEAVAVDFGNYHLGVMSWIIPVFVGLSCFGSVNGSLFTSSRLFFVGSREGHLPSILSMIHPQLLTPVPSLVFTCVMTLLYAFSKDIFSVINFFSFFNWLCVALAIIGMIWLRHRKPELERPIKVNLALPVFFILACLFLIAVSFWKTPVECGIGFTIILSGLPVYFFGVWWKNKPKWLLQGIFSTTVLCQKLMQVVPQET
# T1 sequence (P08195 102-630 partner): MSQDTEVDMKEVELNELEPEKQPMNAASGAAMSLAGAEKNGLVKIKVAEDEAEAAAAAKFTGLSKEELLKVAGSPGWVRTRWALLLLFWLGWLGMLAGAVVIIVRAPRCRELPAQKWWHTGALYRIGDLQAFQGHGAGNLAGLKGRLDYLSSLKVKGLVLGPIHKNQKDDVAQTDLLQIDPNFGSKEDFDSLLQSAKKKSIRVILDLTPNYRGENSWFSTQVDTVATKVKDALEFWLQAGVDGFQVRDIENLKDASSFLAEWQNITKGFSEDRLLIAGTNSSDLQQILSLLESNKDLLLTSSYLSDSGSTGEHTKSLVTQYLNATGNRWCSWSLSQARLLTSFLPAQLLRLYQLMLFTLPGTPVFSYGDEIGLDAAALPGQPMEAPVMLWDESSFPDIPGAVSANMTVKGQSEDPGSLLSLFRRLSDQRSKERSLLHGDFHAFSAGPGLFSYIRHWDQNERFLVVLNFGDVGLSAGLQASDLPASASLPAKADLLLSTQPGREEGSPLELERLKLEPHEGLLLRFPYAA
# Experimental: (§1) In the following experiments, the MCF-7, HEK-hLAT1, and HEK-MOCK cells were cultured, seeded, and preincubated as described above. The HBSS was removed, and the ability of the compounds to inhibit the uptake of a known LAT1 substrate, [^14C]-L-leucine (PerkinElmer, Waltham, MA, USA), was studied by incubating the cells at RT for 10 min in uptake buffer pH 7.4 (250 μL) containing 0.76 μM (0.1 mCi/mL) of [^14C]-L-leucine and 0.025–1800 μM of the studied compound (or HBSS as blank). After incubation, the reaction was stopped with ice-cold HBSS, and the cells were washed two times with ice-cold HBSS. The cells were then lysed with 250 μL of 0.1 M sodium hydroxide, the lysate was mixed with 1.0 mL of Emulsifier safe cocktail (PerkinElmer, Waltham, MA, USA), and the radioactivity was measured with a liquid scintillation counter (MicroBeta^2 counter, PerkinElmer, Waltham, MA, USA). The inhibition of [^14C]-L-leucine in the presence of the studied compounds as compared to the control (HBSS) was calculated as percentages (%).
# Using the stably hLAT1/4F2hc expressing cell line, the compounds’ inhibitory efficiencies and uptake kinetics were determined via the cis-inhibition assay and uptake studies, respectively. (Table 1) Cis-inhibition is based on the competition between the ligand and LAT1 substrate [^14C]-L-leucine that results in inhibition of substrate uptake. The competitive uptake with L-leucine is reported as the IC50 value of L-leucine uptake and extent as inhibition percentage (%) at a given concentration.
# [2] = biological target: T2, LAT1 in MCF-7 human breast cancer cells (Homo sapiens, UniProt Q01650); assay: cis-inhibition of [14C]-L-leucine uptake in MCF-7 cells; format: cell-based; conditions: for IC50: MCF-7 cells; for inhibition at 50 µM: MCF7, MCF-7 cells, 50 μM compound
# T2 construct: wild-type MCF-7 human breast cancer cell line; endogenous in cells; host or cells: MCF-7 human breast cancer cells (wild type)
# T2 sequence (Q01650 whole entry): as the sequence (Q01650 whole entry) above
# T2 sequence (P08195 102-630 partner): as the sequence (P08195 102-630 partner) above
# Experimental: Cells were cultured in DMEM (Gibco, ThermoFisher Scientific, Waltham, MA, USA) supplemented with L-glutamine (2 mM; ThermoFisher Scientific, Waltham, MA, USA), heat-inactivated fetal bovine serum (10%; Gibco, ThermoFisher Scientific, Waltham, MA, USA), penicillin (50 U/mL)-streptomycin (50 μg/mL) solution (ThermoFisher Scientific, Waltham, MA, USA), and hygromycin B solution (100 μg/mL) for transfected cells. HEK-hLAT1 and HEK-MOCK cells (passages 7–20) were seeded at a density of 5 × 10^5 cells/wells onto 24-well plates. The cells were used in the characterization, competition, and uptake studies 2 days after seeding. MCF-7 cells were seeded at a density of 1 × 10^5 and were used in the competition studies 1 day after seeding. The culture medium was removed, and the cells were washed with prewarmed Hanks’ balanced salt solution (HBSS; 125 mM NaCl, 4.8 mM KCl, 1.2 mM MgSO4, 1.2 mM KH2PO4, 1.3 mM CaCl2, 5.6 mM D-glucose, and 25 mM HEPES, pH 7.4). The cells were then incubated with HBSS at 37 °C for 10 min before the experiments.
# as §1
# hLAT1/4F2hc [3] = biological target: T1, hLAT1/4F2hc; assay: Concentration-dependent cellular uptake into HEK-hLAT1 cells (LC-MS/MS, Michaelis-Menten); format: cell-based; conditions: difference in uptake HEK-hLAT1 vs HEK-MOCK, with docking poses; 2-100 μM curves
# MCF-7 cells = conditions: MCF-7 cells, previous studies; cited from earlier work
# hLAT1/4F2hc [4] = biological target: T1, hLAT1/4F2hc; assay: Concentration-dependent cellular uptake into HEK-hLAT1 cells (LC-MS/MS, Michaelis-Menten); format: cell-based; conditions: for Vmax / Km: HEK-hLAT1 cells; for Vmax: 2-400 μM, 10 min
# Experimental: (§2) The concentrations for the compounds were in the range of 2–400 μM. Otherwise, the experiment was carried out as described above and analyzed by liquid chromatography coupled with an electrospray ionization (ESI) triple quadrupole mass spectrometer (LC–MS–MS). […]
# (§3) The concentration-dependent uptake studies were performed by adding 2–400 μM of the tested compound in 250 μL of prewarmed HBSS buffer on the cell layer. […] After incubation, the cells were washed and lysed as described above. The lysate was collected from wells into an Eppendorf tube and centrifuged at 4 °C, the supernatant was collected, and the intracellular concentrations of studied compounds were analyzed by liquid chromatography coupled with an ESI triple quadrupole mass spectrometer (LC–MS–MS). The results were calculated from the standard curve that was prepared by spiking known amounts of each compound to the cell lysate and normalized to protein concentration. The protein concentrations on each plate were determined as a mean of three samples by Bio-Rad Protein Assay, based on the Bradford dye-binding method, using BSA as a standard protein and measuring the absorbance (595 nm) by a multiplate reader (EnVision, PerkinElmer, Inc., Waltham, MA, USA). All statistical analyses (Michaelis–Menten kinetic parameters) were performed using GraphPad Prism v. 5.03 software (GraphPad Software, San Diego, CA., USA). […]
# (§4) After protein precipitation, the samples were centrifuged for 10 min with 10,000 g at 4 °C. The supernatant was then collected and transferred to vials for LC–MS/MS analysis. For BCH and gabapentin, cells were also lysed with 0.1 M NaOH, an aliquot was taken from the lysates, and perchloric acid (PCA) was added to precipitate the proteins. The samples were then centrifuged, and the supernatant was diluted 1:10 with H20 with 0.1% formic acid including the IS and transferred to vials for analysis.
# (§5) The samples were analyzed with LC–MS/MS coupled with an Agilent 1200 series Rapid Resolution LC System (Agilent Technologies, Waldbronn, Germany) and an Agilent 6410 Triple Quadrupole with electrospray ionization (ESI) (Agilent Technologies, Palo Alto, CA, USA). […] The aqueous mobile phase was 0.1% formic acid in water (A), while the organic mobile phase was 0.1% formic acid in acetonitrile (B). […] For compound 4: 0–4 min 10% → 90% B, 4–6 min 90% B, 6–6.1 min 90% → 10%, 6.1–9 min 10%. For compound 5: 0–1 min 20% → 95% B, 1–4 min 95%, 4–4.1 min 95% → 20%, 4.1–7 min 20%. For compounds 6 and 9: 0–2 min 10% → 95%, 2–6 min 95%, 6–6.1 min 95% → 10%, 6.1–9 min 10%. For compound 8: 0–1 min 20% → 80%, 1–5.2 min 80%, 5.2–5.3 min 80% → 20%, 5.3–9 min 20%.
# HEK-MOCK cells [5] = assay: Concentration-dependent cellular uptake into HEK-MOCK cells; format: cell-based, human; conditions: for Vmax: 10 min
# Experimental: as §2, §3, §4, §5
# HEK-MOCK cells [6] = assay: cis-inhibition of [14C]-L-leucine uptake in HEK-MOCK cells; format: cell-based, human; conditions: for [14C]-L-Leucine uptake inhibition % (50μM) / inhibition at 50 µM: 10 min; for IC50 / inhibition at 50 µM: Homo sapiens; for IC50: read-out: IC50 of [14C]-L-leucine uptake; for inhibition at 50 µM: read-out: [14C]-L-Leucine uptake inhibition % (50μM)
# Experimental: as §1
# Using the stably hLAT1/4F2hc expressing cell line, the compounds’ inhibitory efficiencies and uptake kinetics were determined via the cis-inhibition assay and uptake studies, respectively. (Table 1) Cis-inhibition is based on the competition between the ligand and LAT1 substrate [^14C]-L-leucine that results in inhibition of substrate uptake. The competitive uptake with L-leucine is reported as the IC50 value of L-leucine uptake and extent as inhibition percentage (%) at a given concentration. Overall, the inhibition trends of the tested compounds were similar between HEK-hLAT1 and MCF-7 cells. In the next step, more straightforward results were obtained by undertaking direct cellular uptake studies with both HEK-hLAT1 and HEK-MOCK cells. This experiment enabled us to determine not only the uptake kinetics (Vmax and Km) of the ligands but also their preference for LAT1-expressing cells over the comparator HEK-MOCK cells.
# [7] = HEK-hLAT1 cells, 50 μM compound, compounds 1-12
# [8] = HEK-hLAT1 cells, compounds 1-12, read-out: IC50 of [14C]-L-leucine uptake
# [9] = known LAT1 substrates, n = 3, read-out: Km
# [10] = known LAT1 substrates, 2-400 μM, n = 3
# [11] = HEK-hLAT1 cells, 50 μM compound, 0.76 μM [14C]-L-leucine, 10 min, known substrates
# [12] = HEK-hLAT1 cells, known substrates, read-out: IC50 of [14C]-L-leucine uptake
# [13] = HEK-MOCK cells, 50 μM compound, 0.76 μM [14C]-L-leucine, known substrates
# [14] = HEK-MOCK cells, known substrates
Structure (SMILES),inhibition at 50 µM (hLAT1/4F2hc [1]; [7]) [%],IC50 (hLAT1/4F2hc [1]; [8]) [µM],IC50 [2] [µM],interaction class with LAT1 (interaction and transportability) (hLAT1/4F2hc [3]),inhibition at 50 µM [2] [%],"Vmax (hLAT1/4F2hc [4]; known LAT1 substrates, n = 3)",Vmax (HEK-MOCK cells [5]; [10]),"Km (HEK-MOCK cells [5]; known LAT1 substrates, n = 3) [µM]",IC50 (hLAT1/4F2hc [1]; [12]) [µM],further results
N[C@@H](Cc1cccc(C(=O)NCCc2ccc(O)c(O)c2)c1)C(=O)O [Compound 3],4.27 ± 3.94,> 100,3.3 ± 1.3,highest interactions,–,–,–,–,–,Vmax (MCF-7 cells): < 3 pmol/min/mg
N[C@@H](Cc1cccc(NC(=O)c2ccccc2O)c1)C(=O)O [Compound 1],8.1 ± 6.9,> 100,3.3 ± 1.3,highest interactions,66 ± 3.9,–,–,–,–,"Vmax (hLAT1/4F2hc [4]; compounds 1-12): 3714±371 pmol/min/mg of protein; Km (hLAT1/4F2hc [4]; compounds 1-12, read-out: Km): 105 ± 17 µM; Km (HEK-MOCK cells [5]; compounds 1-12): 10 ± 2.7 µM; Vmax (HEK-MOCK cells [5]; compounds 1-12, 2-400 μM): 94±5.4 pmol/min/mg of protein"
CC(C)Cc1ccc(C(C)C(=O)Nc2cccc(C[C@H](N)C(=O)O)c2)cc1 (stereo partly shown) [Compound 7],20 ± 2.5,57,20 ± 1.3,medium interactions,69 ± 4.3,–,–,–,–,–
"NCC1(CC(=O)O)CCCCC1 [Gabapentin, reference compound]",–,–,–,–,–,18±9.9 nmol/min/mg of protein,4.7±1.6 nmol/min/mg of protein,182 ± 86,36,Km (hLAT1/4F2hc [4]; [9]): 552 ± 334 µM; inhibition at 50 µM (hLAT1/4F2hc [1]; [11]): 46.7 ± 1.7%; [14C]-L-Leucine uptake inhibition % (50μM) (HEK-MOCK cells [6]; [13]): no inhibition; IC50 (HEK-MOCK cells [6]; [14]): > 1000 µM
"N[C@@H](Cc1c[nH]c2ccccc12)C(=O)O [Tryptophan, L-tryptophan, reference compound]",–,–,–,–,–,12±19 nmol/min/mg of protein,0.3±0.2 nmol/min/mg of protein,482 ± 496,24,inhibition at 50 µM (hLAT1/4F2hc [1]): 50.2 ± 1.7%; inhibition at 50 µM (HEK-MOCK cells [6]): 19.6 ± 6.2%; IC50 (HEK-MOCK cells [6]): 163 µM
"N[C@@H](Cc1ccc(O)c(O)c1)C(=O)O [L-DOPA, reference compound]",–,–,–,–,–,15±7.6 nmol/min/mg of protein,2.8±0.9 nmol/min/mg of protein,225 ± 90,4.1,Km (hLAT1/4F2hc [4]; [9]): 763 ± 413 µM; [14C]-L-Leucine uptake inhibition % (50μM) (HEK-MOCK cells [6]; [13]): no inhibition
"NC1(C(=O)O)CC2CCC1C2 (stereo not shown) [BCH, reference compound]",–,–,–,–,–,–,2.6±0.6 nmol/min/mg of protein,155 ± 50,28,inhibition at 50 µM (hLAT1/4F2hc [1]; [11]): 51.8 ± 2.1%; inhibition at 50 µM (HEK-MOCK cells [6]; [13]): 5.8 ± 1%; IC50 (HEK-MOCK cells [6]; [14]): 203 µM
CCCC(CCC)C(=O)Nc1cccc(C[C@H](N)C(=O)O)c1 [Compound 4],–,> 100,81 ± 1.4,highest interactions,–,–,–,–,–,"Vmax (hLAT1/4F2hc [4]; compounds 1-12): 1027 pmol/min/mg of protein and 1027±170 pmol/min/mg of protein; Km (hLAT1/4F2hc [4]; compounds 1-12, read-out: Km): 111 ± 30 µM; potency for hLAT1 relative to HEK-MOCK (Km ratio) (hLAT1/4F2hc [4]; Km 111 μM HEK-hLAT1 vs 277 μM HEK-MOCK): more than two-fold; Vmax (uptake rate) in HEK-hLAT1 cells relative to HEK-MOCK cells (hLAT1/4F2hc [4]; ratio of Vmax values): around three; Km (HEK-MOCK cells [5]; compounds 1-12): 277 µM; Vmax (HEK-MOCK cells [5]; compounds 1-12, 2-400 μM): 292 pmol/min/mg of protein and 292±710 pmol/min/mg of protein; [14C]-L-Leucine uptake inhibition % (50μM) (hLAT1/4F2hc [1]; [7]): no inhibition"
"N[C@@H](Cc1ccc(N(CCCl)CCCl)cc1)C(=O)O [Melphalan, reference compound]",–,–,–,–,–,0.08±0.01 nmol/min/mg of protein,0.07±0.09 nmol/min/mg of protein,91 ± 21,–,"Km (hLAT1/4F2hc [4]; known LAT1 substrates, n = 3): 35 ± 7 µM; IC50 (hLAT1/4F2hc [1]): 6.6 µM; inhibition at 50 µM (hLAT1/4F2hc [1]): 38.2 ± 2.4%; [14C]-L-Leucine uptake inhibition % (50μM) (HEK-MOCK cells [6]; [13]): no inhibition"
COc1ccc2cc(C(C)C(=O)Nc3cccc(C[C@H](N)C(=O)O)c3)ccc2c1 (stereo partly shown) [Compound 12],28 ± 2.6,> 100,5.6 ± 1.3,not interacting with LAT1,83 ± 1.7,–,–,–,–,–
CC(C(=O)Nc1cccc(C[C@H](N)C(=O)O)c1)c1ccc(-c2ccccc2)c(F)c1 (stereo partly shown) [Compound 11],26.4 ± 3.1,> 100,2.2 ± 1.3,not interacting with LAT1,84 ± 3.1,–,–,–,–,–
CNC(=O)COc1ccc(-c2c(C#N)c(NC(=O)c3cccc(C[C@H](N)C(=O)O)c3)n3c(nc4ccccc43)c2C#N)cc1 [Compound 6],29 ± 2.8,> 100,–,medium interactions,48 ± 12,–,–,–,–,"Km (HEK-MOCK cells [5]; compounds 1-12): 201 ± 344 µM; Vmax (HEK-MOCK cells [5]; compounds 1-12, 2-400 μM): 74±92 pmol/min/mg of protein"
